Measured values reported in patent US8952039B2, “Pyridone derivatives and their use in the treatment, ameloriation or prevention of a viral disease” (priority 2013, dated 2015).

Molecular target: T1, influenza A virus (IAV) PA-Nter fragment (amino acids 1-209) (Influenza A virus, UniProt P31343)
T1 construct: PA-Nter fragment (amino acids 1-209); made in house
Test: FRET endonuclease activity assay
Format: biochemical
Details: 10 μM compound; % reduction of v0 compared to untreated

Row | Structure (SMILES) | inhibition at 10 µM
1 | CC(C)NC(=O)c1c(O)c(=O)cc(CNS(=O)(=O)c2ccccc2)n1C | 13%
2 | CC(C)NC(=O)c1c(O)c(=O)cc(CNS(=O)(=O)c2cccc(Cl)c2)n1C | 13%
3 | CC(C)NC(=O)c1c(O)c(=O)cc(CNS(=O)(=O)c2ccc(Cl)cc2)n1C | 11%
4 | Cc1cccc(S(=O)(=O)NCc2cc(=O)c(O)c(C(=O)NC(C)C)n2C)c1 | 36%
5 | Cc1ccc(S(=O)(=O)NCc2cc(=O)c(O)c(C(=O)NC(C)C)n2C)cc1 | 8%
6 | CC(C)NC(=O)c1c(O)c(=O)ccn1C(C)Cc1ccccc1 (centres unmarked) | 7%
7 | CNC(=O)c1c(O)c(=O)cc(Cc2ccccc2-c2ccccc2)n1C | 10%
8 | CC(C)NC(=O)c1c(O)c(=O)cc(Cc2ccccc2-c2ccccc2)n1C | 13%
9 | Cn1c(Cc2ccccc2-c2ccccc2)cc(=O)c(O)c1C(N)=O | 17%
10 | CNC(=O)c1c(O)c(=O)cc(CNS(=O)(=O)c2ccccc2)n1C | 13%
11 | CNC(=O)c1c(O)c(=O)cc(CNS(=O)(=O)c2ccc(C)cc2)n1C | 10%
12 | CNC(=O)c1c(O)c(=O)cc(CNS(=O)(=O)c2cccc(C)c2)n1C | 33%
13 | CNC(=O)c1c(O)c(=O)cc(CNS(=O)(=O)c2ccc(Cl)cc2)n1C | 7%
14 | CNC(=O)c1c(O)c(=O)cc(CNS(=O)(=O)c2cccc(Cl)c2)n1C | 23%

Same assay, conditions: calculated from initial reaction velocities (v0); 0.5 μM PA-Nter, 1.6 μM RNA substrate

Row | Structure (SMILES) | IC50
15 | Cn1c(CNS(=O)(=O)c2ccccc2)cc(=O)c(O)c1C(=O)O | 560 nM
16 | Cn1c(CNS(=O)(=O)c2ccc(Cl)cc2)cc(=O)c(O)c1C(=O)O | 1140 nM
17 | Cn1c(CNS(=O)(=O)c2cccc(Cl)c2)cc(=O)c(O)c1C(=O)O | 150 nM
18 | Cn1c(CNS(=O)(=O)c2ccccc2Cl)cc(=O)c(O)c1C(=O)O | 110 nM
19 | Cc1ccc(S(=O)(=O)NCc2cc(=O)c(O)c(C(=O)O)n2C)cc1 | 970 nM
20 | Cc1ccccc1S(=O)(=O)NCc1cc(=O)c(O)c(C(=O)O)n1C | 280 nM
21 | Cc1cccc(S(=O)(=O)NCc2cc(=O)c(O)c(C(=O)O)n2C)c1 | 530 nM
22 | CC(C)NC(=O)c1c(O)c(=O)cc(CNS(=O)(=O)c2ccccc2Cl)n1C | 6300 nM
23 | Cc1ccccc1S(=O)(=O)NCc1cc(=O)c(O)c(C(=O)NC(C)C)n1C | 4600 nM
24 | Cn1c(Cc2ccccc2-c2ccccc2)cc(=O)c(O)c1C(=O)O | 400 nM
25 | CNC(=O)c1c(O)c(=O)cc(CNS(=O)(=O)c2ccccc2C)n1C | 12200 nM
26 | CNC(=O)c1c(O)c(=O)cc(CNS(=O)(=O)c2ccccc2Cl)n1C | 9000 nM
